Measured values taken from PubChem BioAssay (NCI).
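All cell lines were grown in 96-well plates and treated with compound for 48 hours. Abbreviation: GI50, concentration required for 50% inhibition of growth. TGI marks complete inhibition of growth.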

Columns and labels:
Assay in all cases: NCI tumour cell line growth inhibition, 48 h
T-47D breast = system: T-47D breast
SW-620 colon = system: SW-620 colon
NCI-H522 lung = system: NCI-H522 lung
SF-295 CNS = system: SF-295 CNS
SF-268 CNS = system: SF-268 CNS
SK-OV-3 ovarian = system: SK-OV-3 ovarian
SK-MEL-2 melanoma = system: SK-MEL-2 melanoma
COLO 205 colon = system: COLO 205 colon
RXF 393 renal = system: RXF 393 renal
HL-60(TB) leukemia = system: HL-60(TB) leukemia
NCI-H226 lung = system: NCI-H226 lung
SK-MEL-5 melanoma = system: SK-MEL-5 melanoma
HOP-62 NSCLC = system: HOP-62 NSCLC
NCI-H23 lung = system: NCI-H23 lung
NCI-H460 lung = system: NCI-H460 lung
786-0 renal = system: 786-0 renal
RPMI-8226 leukemia = system: RPMI-8226 leukemia
SF-539 CNS = system: SF-539 CNS
LOX IMVI melanoma = system: LOX IMVI melanoma
MCF7 breast = system: MCF7 breast
SN12C renal = system: SN12C renal
HCT-116 colon = system: HCT-116 colon
UACC-62 melanoma = system: UACC-62 melanoma
M14 melanoma = system: M14 melanoma
MOLT-4 leukemia = system: MOLT-4 leukemia
UO-31 renal = system: UO-31 renal
A498 renal = system: A498 renal
U251 CNS = system: U251 CNS
OVCAR-8 ovarian = system: OVCAR-8 ovarian
SK-MEL-28 melanoma = system: SK-MEL-28 melanoma
UACC-257 melanoma = system: UACC-257 melanoma
MDA-MB-435 = system: MDA-MB-435
SNB-19 CNS = system: SNB-19 CNS
PC-3 prostate = system: PC-3 prostate
MDA-MB-231 breast = system: MDA-MB-231 breast
SR leukemia = system: SR leukemia
HOP-92 NSCLC = system: HOP-92 NSCLC
CAKI-1 renal = system: CAKI-1 renal
OVCAR-5 ovarian = system: OVCAR-5 ovarian
NCI/ADR-RES ovarian = system: NCI/ADR-RES ovarian
DU-145 prostate = system: DU-145 prostate
IGROV1 ovarian = system: IGROV1 ovarian
OVCAR-3 ovarian = system: OVCAR-3 ovarian
TK-10 renal = system: TK-10 renal
CCRF-CEM leukemia = system: CCRF-CEM leukemia
HCT-15 colon = system: HCT-15 colon
BT-549 breast = system: BT-549 breast
HCC-2998 colon = system: HCC-2998 colon
HT29 colon = system: HT29 colon
HS 578T breast = system: HS 578T breast
A549 NSCLC = system: A549 NSCLC
SNB-75 CNS = system: SNB-75 CNS
MALME-3M melanoma = system: MALME-3M melanoma
ACHN renal = system: ACHN renal
KM12 colon = system: KM12 colon

Question: How did the GI50 (T-47D breast) turn out when Cc1ccc(C)c(NC2=C(Cl)C(=O)c3nc(C)ccc3C2=O)c1 was run?
Answer: 1260 nM

Question: What about the TGI (T-47D breast) of the same compound?
Answer: 3720 nM

Question: What about the GI50 (SW-620 colon) of the same compound?
Answer: 1790 nM

Question: And the TGI (SW-620 colon)?
Answer: 4270 nM

Question: What about the GI50 (NCI-H522 lung) of the same compound?
Answer: 1920 nM

Question: And the TGI (NCI-H522 lung)?
Answer: 4380 nM

Question: And the GI50 (SF-295 CNS)?
Answer: 1750 nM

Question: And the TGI (SF-295 CNS)?
Answer: 3310 nM

Question: What about the GI50 (SF-268 CNS) of the same compound?
Answer: 1420 nM

Question: What about the TGI (SF-268 CNS) of the same compound?
Answer: 3290 nM

Question: What about the GI50 (SK-OV-3 ovarian) of the same compound?
Answer: 2740 nM

Question: What about the TGI (SK-OV-3 ovarian) of the same compound?
Answer: 14600 nM

Question: What about the GI50 (SK-MEL-2 melanoma) of the same compound?
Answer: 1930 nM

Question: And the TGI (SK-MEL-2 melanoma)?
Answer: 3890 nM

Question: What about the GI50 (COLO 205 colon) of the same compound?
Answer: 2090 nM

Question: And the TGI (COLO 205 colon)?
Answer: 4490 nM

Question: What about the GI50 (RXF 393 renal) of the same compound?
Answer: 1220 nM

Question: What about the TGI (RXF 393 renal) of the same compound?
Answer: 2500 nM

Question: And the GI50 (HL-60(TB) leukemia)?
Answer: 1160 nM

Question: And the TGI (HL-60(TB) leukemia)?
Answer: 3360 nM

Question: And the GI50 (NCI-H226 lung)?
Answer: 1670 nM

Question: And the TGI (NCI-H226 lung)?
Answer: 4400 nM

Question: What about the GI50 (SK-MEL-5 melanoma) of the same compound?
Answer: 1500 nM

Question: What about the TGI (SK-MEL-5 melanoma) of the same compound?
Answer: 2890 nM

Question: What about the GI50 (HOP-62 NSCLC) of the same compound?
Answer: 1450 nM

Question: What about the TGI (HOP-62 NSCLC) of the same compound?
Answer: 2990 nM

Question: And the GI50 (NCI-H23 lung)?
Answer: 1260 nM

Question: And the TGI (NCI-H23 lung)?
Answer: 3920 nM

Question: And the GI50 (NCI-H460 lung)?
Answer: 1880 nM

Question: And the TGI (NCI-H460 lung)?
Answer: 3950 nM

Question: What about the GI50 (786-0 renal) of the same compound?
Answer: 1790 nM

Question: What about the TGI (786-0 renal) of the same compound?
Answer: 3740 nM

Question: What about the GI50 (RPMI-8226 leukemia) of the same compound?
Answer: 708 nM

Question: What about the TGI (RPMI-8226 leukemia) of the same compound?
Answer: 3340 nM

Question: And the GI50 (SF-539 CNS)?
Answer: 1650 nM

Question: What about the TGI (SF-539 CNS) of the same compound?
Answer: 3120 nM

Question: What about the GI50 (LOX IMVI melanoma) of the same compound?
Answer: 288 nM

Question: And the TGI (LOX IMVI melanoma)?
Answer: 1590 nM

Question: And the GI50 (MCF7 breast)?
Answer: 917 nM

Question: What about the TGI (MCF7 breast) of the same compound?
Answer: 3010 nM

Question: What about the GI50 (SN12C renal) of the same compound?
Answer: 1050 nM

Question: What about the TGI (SN12C renal) of the same compound?
Answer: 3150 nM

Question: And the GI50 (HCT-116 colon)?
Answer: 333 nM

Question: What about the TGI (HCT-116 colon) of the same compound?
Answer: 1510 nM

Question: What about the GI50 (UACC-62 melanoma) of the same compound?
Answer: 1560 nM

Question: What about the TGI (UACC-62 melanoma) of the same compound?
Answer: 3260 nM

Question: And the GI50 (M14 melanoma)?
Answer: 1460 nM

Question: What about the TGI (M14 melanoma) of the same compound?
Answer: 2900 nM

Question: What about the GI50 (MOLT-4 leukemia) of the same compound?
Answer: 633 nM

Question: And the TGI (MOLT-4 leukemia)?
Answer: 4090 nM

Question: What about the GI50 (UO-31 renal) of the same compound?
Answer: 1250 nM

Question: And the TGI (UO-31 renal)?
Answer: 2640 nM

Question: What about the GI50 (A498 renal) of the same compound?
Answer: 2030 nM

Question: And the TGI (A498 renal)?
Answer: 8140 nM

Question: And the GI50 (U251 CNS)?
Answer: 1290 nM

Question: What about the TGI (U251 CNS) of the same compound?
Answer: 2780 nM

Question: What about the GI50 (OVCAR-8 ovarian) of the same compound?
Answer: 1790 nM

Question: And the TGI (OVCAR-8 ovarian)?
Answer: 6010 nM

Question: And the GI50 (SK-MEL-28 melanoma)?
Answer: 1990 nM

Question: And the TGI (SK-MEL-28 melanoma)?
Answer: 3700 nM

Question: What about the GI50 (UACC-257 melanoma) of the same compound?
Answer: 1420 nM

Question: What about the TGI (UACC-257 melanoma) of the same compound?
Answer: 2820 nM

Question: And the GI50 (MDA-MB-435)?
Answer: 1410 nM

Question: And the TGI (MDA-MB-435)?
Answer: 3270 nM

Question: What about the GI50 (SNB-19 CNS) of the same compound?
Answer: 1490 nM

Question: And the TGI (SNB-19 CNS)?
Answer: 3420 nM

Question: What about the GI50 (PC-3 prostate) of the same compound?
Answer: 1140 nM

Question: What about the TGI (PC-3 prostate) of the same compound?
Answer: 2920 nM

Question: What about the GI50 (MDA-MB-231 breast) of the same compound?
Answer: 969 nM

Question: And the TGI (MDA-MB-231 breast)?
Answer: 2820 nM

Question: What about the GI50 (SR leukemia) of the same compound?
Answer: 695 nM

Question: What about the TGI (SR leukemia) of the same compound?
Answer: 3230 nM

Question: And the GI50 (HOP-92 NSCLC)?
Answer: 1840 nM

Question: And the TGI (HOP-92 NSCLC)?
Answer: 3780 nM

Question: What about the GI50 (CAKI-1 renal) of the same compound?
Answer: 1430 nM

Question: And the TGI (CAKI-1 renal)?
Answer: 3030 nM

Question: And the GI50 (OVCAR-5 ovarian)?
Answer: 2410 nM

Question: And the TGI (OVCAR-5 ovarian)?
Answer: 4510 nM

Question: And the GI50 (NCI/ADR-RES ovarian)?
Answer: 1330 nM

Question: And the TGI (NCI/ADR-RES ovarian)?
Answer: 5020 nM

Question: What about the GI50 (DU-145 prostate) of the same compound?
Answer: 1600 nM

Question: And the TGI (DU-145 prostate)?
Answer: 3080 nM

Question: And the GI50 (IGROV1 ovarian)?
Answer: 1360 nM

Question: What about the TGI (IGROV1 ovarian) of the same compound?
Answer: 3300 nM

Question: What about the GI50 (OVCAR-3 ovarian) of the same compound?
Answer: 292 nM

Question: What about the TGI (OVCAR-3 ovarian) of the same compound?
Answer: 1150 nM

Question: What about the GI50 (TK-10 renal) of the same compound?
Answer: 2610 nM

Question: And the TGI (TK-10 renal)?
Answer: 4240 nM

Question: What about the GI50 (CCRF-CEM leukemia) of the same compound?
Answer: 1610 nM

Question: What about the TGI (CCRF-CEM leukemia) of the same compound?
Answer: 5800 nM

Question: What about the GI50 (HCT-15 colon) of the same compound?
Answer: 848 nM

Question: What about the TGI (HCT-15 colon) of the same compound?
Answer: 2560 nM

Question: And the GI50 (BT-549 breast)?
Answer: 1320 nM

Question: What about the TGI (BT-549 breast) of the same compound?
Answer: 2660 nM

Question: And the GI50 (HCC-2998 colon)?
Answer: 1750 nM

Question: And the TGI (HCC-2998 colon)?
Answer: 3250 nM

Question: And the GI50 (HT29 colon)?
Answer: 3080 nM

Question: What about the TGI (HT29 colon) of the same compound?
Answer: 8770 nM

Question: What about the GI50 (HS 578T breast) of the same compound?
Answer: 2050 nM

Question: And the TGI (HS 578T breast)?
Answer: 5760 nM

Question: What about the GI50 (A549 NSCLC) of the same compound?
Answer: 2100 nM

Question: What about the TGI (A549 NSCLC) of the same compound?
Answer: 4750 nM

Question: What about the GI50 (SNB-75 CNS) of the same compound?
Answer: 1220 nM

Question: What about the TGI (SNB-75 CNS) of the same compound?
Answer: 2640 nM

Question: And the GI50 (MALME-3M melanoma)?
Answer: 2120 nM

Question: What about the TGI (MALME-3M melanoma) of the same compound?
Answer: 4170 nM

Question: What about the GI50 (ACHN renal) of the same compound?
Answer: 1450 nM

Question: What about the TGI (ACHN renal) of the same compound?
Answer: 2910 nM

Question: And the GI50 (KM12 colon)?
Answer: 1540 nM

Question: And the TGI (KM12 colon)?
Answer: 3570 nM
